Key:
Type in all cases: in vivo, mouse
Aire KO corneas [1] = assay: Epithelial barrier function by lissamine green uptake
Text: As dry eye results in disruption of ocular surface integrity resulting in cornea barrier dysfunction and, consequently, fluid loss and pathogen invasion (11), we next determined whether lacripep maintains corneal epithelial architecture by analyzing lissamine green uptake at day 7 and 15. […] Restoration of barrier function was further confirmed by analyzing the superficial epithelial layers for the tight junction protein ZO1 which is essential to the structural integrity of the corneal epithelium (12).
(§1) Aire KO female mice aged 5 weeks were used for the study. All mice were topically treated with 5 μL per eye of 4 μM lacripep. Dosing was three times daily for 14 consecutive days. Lissamine green staining assessment and tear secretion assays were performed on each eye before treatment at baseline, 7 days and 14 days post treatment
After mice were anesthetized with isoflurane, 5 μL of lissamine green dye (1%) was applied to the lower conjunctival cul-de-sac. […] Lissamine green staining was scored by dividing the cornea into four quadrants, the extent of staining in each quadrant was classified as Grade 0, no staining; Grade 1, sporadic (<25%); Grade 2, diffuse punctate (25-75%), or Grade 3, coalesced punctate staining (75% or more). The total score was calculated separately for each eye and equaled the sum of all four quadrants ranging from 0 (no staining) to 12 (most severe staining). […]

Aire KO mice = assay: Pilocarpine-stimulated (maximal) tear secretion in Aire KO mice; details: between Aire KO treatment conditions; 4.5 mg/kg pilocarpine i.p.
Text: (§2) We next tested whether lacripep restored basal cell identity and barrier function by reducing immune cell infiltration. Prolonged desiccating stress from reduced tear production elicits an immune response in which activated CD4+ T cells home to the corneal epithelium and stroma (primarily accumulating at the limbal region) to modulate epithelial differentiation (17) and direct the development of autoimmune mediated dry eye (18).
as §1
Mice were anesthetized with isoflurane and basal tear secretion was then measured using a Zone-Quick phenol red thread (as indicated by the length of the tear-absorbed region in 15 seconds). Stimulated tear secretion was measured after 4.5 mg/kg of pilocarpine diluted in saline was injected into the peritoneum (i.p.). Ten minutes later, mice were anesthetized with isoflurane and tear secretion was measured using a Zone-Quick phenol red thread (Showa Yakuhin Kako Co. Ltd., Tokyo, Japan).

Aire KO corneas [2] = assay: RNAseq of corneas at day 7 of treatment
Text: To identify potential downstream targets of lacripep treatment, we elucidated changes in corneal gene expression and signaling pathways at the day 7 time point through RNAseq. Principal component analysis (PCA) identified major transcriptional differences between each treatment group (FIG. 6A). […] Subsequent analysis yielded enriched gene sets that were highly associated with neuronal gene ontology (GO) terms e.g., synapse (P=3.6E-47), visual perception (P=5.8E-49), neuron projection (P=2.1E-29), and response to stimulus (P=1.8E-19) (FIG. 4C). These included cohorts of genes expressed by nerves and/or corneal epithelial cells involved in axonogenesis and axon guidance e.g., Neurod2, Cntn4, ephrins (Epha5, Epha7, Epha8) and semaphorins (Sema6a, Sema7a); synapse formation and function e.g., synaptic vesicle membrane proteins (Syt1; synaptophysin-Syp) and synaptic vesicle exocytosis regulators (Rims1, Rims2); neuronal signaling e.g., GABA receptors (Gabra2, Gabrr1), glutamate receptors (Gria2, Gria4), and G protein signal-transducing mediators (Gnb3, Gng4); and neurotransmitter transport e.g. glutamate transporters (Slc17a7) and GABA transporters (Slc6a1, Slc32a1) (FIG. 4D). Analysis of corneas treated with lacripep or PBS versus untreated corneas further emphasized the ability of lacripep and not PBS alone to induce transcription of neuronal gene sets (FIG. 6B).
Total RNA was collected at 7 days of treatment and purified using RNAaqueous and DNase reagents according to the manufacturer's instructions (Ambion, Houston, TX, USA). RNA quality was assessed using the Agilent 2100 BioAnalyzer, and samples with an RNA integrity ≥6.0 were included for RNA sequencing. The synthesis of mRNA libraries was performed by Novogene Corporation Inc. according to their protocols. RNA library was formed by ploy A capture (or rRNA removal), RNA fragmentation by covaris or enzyme digestion and reverse transcription of cDNA. Sequencing was performed as described below.
RNA libraries were sequenced on an Illumina NovaSeq 6000. Depths of 20-30 million 150 bp paired-end reads were generated for each sample. Quality control metrics were performed on raw sequencing reads using the FASTQC v0.11.9 application (76). Reads were mapped to the UCSC Mus musculus genome mm 10 (NCBI build v38) using Spliced Transcripts Alignment to a Reference (STAR) (77). At least 90% of the reads were successfully mapped. Reads aligning to the mm 10 build were quantified against Ensembl Transcripts release 93 using Partek® E/M (Partek's optimization of the expectation maximization algorithm, Partek Inc, St. Louis, MO, USA), which disregarded any reads that aligned to more than one location or more than one gene at a single location. […]

CD4+ T cells = assay: CD4+ T cell infiltration of cornea and lacrimal gland; details: day 15
Text: as §2
For immunofluorescent analysis, 7 or 20 μm tissue sections were incubated with the following primary antibodies: mouse anti-ZO1 conjugated to Alexa594 (1:1000, Life Technologies, Cat 339194), rabbit anti-KRT6A (1:800, Cell Signaling, Cat 4912S), chicken anti-KRT14 (1:1500, Santa Cruz, Cat 515882), rat anti-Ki67 (1:200, Biolegend, 652405), rat anti-CD4 (1:200, Santa Cruz), rabbit anti-TUBB3 (1:500, Cell Signaling, Cat 5568S), and rat anti-Ecadherin (1:300, Life Technologies, Cat 131900). Antibodies were detected using Cy2-, Cy3- or Cy5-conjugated secondary Fab fragment antibodies (Jackson Laboratories), and nuclei were stained with Hoechst 33342 (1:3000, Sigma-Aldrich). Fluorescence was analyzed using a Zeiss LSM 900 confocal microscope or Zeiss Yokogawa Spinning disk confocal microscope with images assessed using NIH ImageJ software, as described below.
Quantification of CD4+ T cells in cornea and Lacrimal gland. […]

[3] = lacripep- versus PBS-treated corneas, Padj<0.05, 2-fold change cutoff

Substance: Ac-KQFIENGSEFAQKLLKKFSLLKPWA-NH2 [lacripep, amino terminus acetylated, carboxyl terminus aminated]
- lissamine green uptake (Aire KO corneas [1]; day 7, compared to WT controls): increased lissamine green uptake compared to WT controls
- epithelial barrier function (lissamine green uptake) (Aire KO corneas [1]; day 15, uptake levels resembling WT corneas): significantly improved
- maximal tear secretion in response to pilocarpine (Aire KO mice): no difference
- expression of inflammatory mediators (IL1b, interferon response genes) (Aire KO corneas [2]; across diseased corneas): expressed at similar levels in all diseased corneas
- expression of T cell markers, T cell response genes and macrophage markers (Aire KO corneas [2]; compared to WT controls): remained significantly elevated
- genes downregulated (Aire KO corneas [2]; [3]): 15 genes
- genes significantly upregulated (Aire KO corneas [2]; [3]): 818 genes
- CD4+ T cell infiltration of cornea (CD4+ T cells; Aire KO corneas regardless of treatment): extensively infiltrated by CD4+ T cells
- CD4+ T cell infiltration of lacrimal glands (CD4+ T cells; Aire KO lacrimal glands regardless of treatment): extensively infiltrated by CD4+ T cells

From patent publication US20250302913A1, “LACRIPEP PROMOTES NEUROREGENERATION AND MAINTAINS EPITHELIAL PROGENITOR CELL IDENTITY” (The Regents of The University of California, priority 2022, published 2025)
